This is an account of results in US20240197896A1, “SYNTHETIC PEPTIDE SHUTTLE AGENT BIOCONJUGATES FOR INTRACELLULAR CARGO DELIVERY” (FELDAN BIO INC., priority 2021, published 2024).

Where two headings read alike, the source gives them in different places. Ends that are not written are not given here. Where only a bound is given, the exact number is not on record here.

A short description of data set [1]: Cell viability / cytotoxicity in HeLa transduction assays (flow cytometry FSC/SSC). The data set is classed as cell-based. The conditions noted are these: human, HeLa cells. As for the experimental part:
(§1) HeLa cells were plated (20 000 cells/well) in a 96 well-dish one day prior to transduction. Each delivery mix comprising a PEGylated shuttle agent (monomer or multimer) or a non-PEGylated shuttle agent at the indicated concentration(s) and 10 μM of a fluorescent cargo (e.g., GFP-NLS or DRI-NLS^647) was prepared in 50 μL with RPMI 1640 media completed with 10% human serum. Cells were washed once with PBS 1×, then incubated for 5 minutes with the prepared shuttle/cargo mix, PEGylated shuttle agent/cargo mix, and/or with the cargo alone as a negative control. After the incubation, 100 μL of DMEM containing 10% FBS was added to the mix and removed. Cells were washed once with PBS 1× and incubated in DMEM containing 10% FBS. Cells were then analyzed after a 1-hour incubation by fluorescence microscopy (Revolve, Echo: San Diego, CA, USA) and flow cytometry (Cytoflex™, Beckman Coulter: Indianapolis, IN, USA).
The signal intensity emitted by the fluorescent cargo and the percentage of cargo delivered cells was quantified by flow cytometry. Untreated cells were used to establish a baseline to quantify the increase in fluorescence that results from a successful internalization of the cargo in the presence of the shuttle agent in the treated cells. The percentage of cells with a fluorescence signal greater than the maximum fluorescence of untreated cells, “mean %” or “Pos cells (%)”, was used to identify positive fluorescent cells for determining transduction efficiency. The mean fluorescence intensity (Mean-FITC/APC) is the average of all fluorescence intensities of each cell with a fluorescent signal after delivery of fluorescent cargos. “Delivery scores” were calculated to provide a further indication of the total amount of cargo that was delivered per cell amongst all cargo-positive cells and was calculated by multiplying the mean fluorescence intensity (of at least duplicate samples) measured for the viable cargo-positive cells, by the mean percentage of viable cargo-positive cells, divided by 100,000. Finally, a “Delivery-Viability Score” was sometimes calculated for each peptide as the Mean viability multiplied by the Delivery Score multiplied by 10, enabling a ranking of the shuttle agents in terms of both their transduction activity and toxicity. Furthermore, the events detected by the cytometer and which correspond to the cells (size and granularity) were analyzed. Cellular toxicity (% cell viability) is obtained by comparing the size (FSC) and granularity (SSC) of each cell delivery condition to untreated cells. The delivery conditions of the cells also included the “cargo only” as a control.
Background: In flow cytometry, cells or beads pass a laser one at a time.

Data set [2] concerns HeLa cells. The data set is described as follows: In vitro transduction of GFP-NLS cargo in HeLa cells (flow cytometry and fluorescence microscopy). The data set is classed as cell-based. The following applies: used at 10 μM; 10% human serum. As for the experimental part: as §1, with “Cells were washed once with PBS 1× and incubated in DMEM containing 10% FBS.” left out
(§2) The signal intensity emitted by the fluorescent cargo and the percentage of cargo delivered cells was quantified by flow cytometry. Untreated cells were used to establish a baseline to quantify the increase in fluorescence that results from a successful internalization of the cargo in the presence of the shuttle agent in the treated cells. The percentage of cells with a fluorescence signal greater than the maximum fluorescence of untreated cells, “mean %” or “Pos cells (%)”, was used to identify positive fluorescent cells for determining transduction efficiency. […]

Data set [3] deals with HeLa cells. The data set is described as follows: In vitro transduction of DRI-NLS^647 cargo in HeLa cells (flow cytometry and fluorescence microscopy). It is filed as cell-based, Human. The conditions noted are these: used at 10 μM; cargo 10 μM. How it is done:
as §1, with “Cells were washed once with PBS 1× and incubated in DMEM containing 10% FBS.” left out
as §2

A further data set has as its system cells. The conditions noted are these: following the cells being exposed to the shuttle agent and cargo; cited from earlier work.
A further data set in a line: in vitro. The following applies: human, cerebrospinal or other body fluid.

As to `N=C(N)NCCC[C@H](NC(=O)[C@H](CCCNC(=N)N)NC(=O)[C@H](CCCNC(=N)N)NC(=O)[C@H](CCC(N)=O)NC(=O)[C@H](CCCNC(=N)N)NC(=O)[C@H](CCCNC(=N)N)NC(=O)[C@H](CCCCN)NC(=O)[C@H](CCCCN)NC(=O)[C@H](CCCNC(=N)N)NC(=O)CNC(=O)[C@@H](N)Cc1ccc(O)cc1)C(=O)O` [TAT], the viability at 5 min in data set [1] (concentrations of 10 to 220 μM (data not shown), read-out: viabilities) is over 80%.

As for “FSD10scr: negative control peptide, same amino acids of FSD10 rearranged in a scrambled order (KWKLARAFARAIKKLGGSGGGSYARALRRQARTG; FSD10 Scarmble)”, the “nuclear cargo transduction of GFP-NLS by microscopy” value with HeLa cells [2] is recorded as “no significant transduction”. In addition, the “nuclear cargo transduction of independent DRI-NLS^647 by microscopy” value with HeLa cells [3] is “no significant transduction”.

As to “His-CM18-PTD4: first generation shuttle agent (HHHHHHKWKLFKKIGAVLKVLTTGYARAAARQARA; His-CM18-PTD4)”, in the data set with cells, the “time to deliver GFP-NLS cargo to the cytosol” value was 45 s.

On to “KWKLARAFARAIKKLGGSGGGSYARALRRQARTG [FSD10]”, for which the viability at 5 min, 20 µM in data set [1] (shuttle agent at 20 μM, 10 μM GFP-NLS) worked out at 55%. In data set [1] (shuttle agent at 40 μM, 10 μM GFP-NLS), the viability at 5 min, 40 µM amounted to 6%. The viability at 5 min in data set [1] (shuttle agent, 10 μM GFP-NLS, read-out: cell viabilities) is under 10%. The molecule also registered a metabolised at 5 min in the data set “in vitro” of 40%.
